Measured values: ChEMBL document CHEMBL1949530, “Fatty acid amide hydrolase inhibitors. 3: tetra-substituted azetidine ureas with in vivo activity” (Bioorg Med Chem Lett, 2012)
pIC50, pKi: −log10 of the molar value. In brackets after ≈: the same amount, converted by molar mass. One block for each compound: values may come before it.

Columns and labels:
Cannabinoid receptor 2 = Cannabinoid receptor 2 (Homo sapiens, UniProt P34972); test: Displacement of [3H]CP55940 from human CB2 receptor
[1] = Drug metabolism in rat liver microsomes after 10 mins; assay type: ADME, Microsome; conditions: read-out: Drug metabolism
[2] = biological target: T1, Fatty-acid amide hydrolase 1 (Homo sapiens, UniProt O00519); test: Inhibition of human FAAH expressed in CHO cells using 7-amino-4-methylcoumarine amide as substrate preincubated for 1 hr by fluorimetry; assay type: cell-based
T1 sequence (O00519 whole entry): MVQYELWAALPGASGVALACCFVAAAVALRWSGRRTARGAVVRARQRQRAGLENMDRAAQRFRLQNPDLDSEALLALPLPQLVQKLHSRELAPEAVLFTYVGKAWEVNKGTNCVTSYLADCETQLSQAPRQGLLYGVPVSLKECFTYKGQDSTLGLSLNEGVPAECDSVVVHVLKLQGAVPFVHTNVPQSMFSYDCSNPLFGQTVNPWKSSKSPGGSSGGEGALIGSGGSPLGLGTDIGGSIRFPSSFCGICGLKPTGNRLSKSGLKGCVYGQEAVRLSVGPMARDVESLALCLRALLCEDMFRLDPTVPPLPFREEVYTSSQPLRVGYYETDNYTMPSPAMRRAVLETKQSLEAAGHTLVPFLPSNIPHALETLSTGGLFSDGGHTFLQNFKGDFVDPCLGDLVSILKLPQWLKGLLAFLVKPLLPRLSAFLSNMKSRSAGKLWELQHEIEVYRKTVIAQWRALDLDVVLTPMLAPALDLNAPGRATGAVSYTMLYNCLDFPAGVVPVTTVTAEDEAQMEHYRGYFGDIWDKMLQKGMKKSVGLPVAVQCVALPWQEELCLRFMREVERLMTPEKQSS

[3] = biological target: T2, Fatty-acid amide hydrolase 1 (Rattus norvegicus, UniProt P97612); test: Inhibition of rat FAAH using 7-amino-4-methylcoumarine amide as substrate preincubated for 1 hr by fluorimetry
T2 sequence (P97612 whole entry): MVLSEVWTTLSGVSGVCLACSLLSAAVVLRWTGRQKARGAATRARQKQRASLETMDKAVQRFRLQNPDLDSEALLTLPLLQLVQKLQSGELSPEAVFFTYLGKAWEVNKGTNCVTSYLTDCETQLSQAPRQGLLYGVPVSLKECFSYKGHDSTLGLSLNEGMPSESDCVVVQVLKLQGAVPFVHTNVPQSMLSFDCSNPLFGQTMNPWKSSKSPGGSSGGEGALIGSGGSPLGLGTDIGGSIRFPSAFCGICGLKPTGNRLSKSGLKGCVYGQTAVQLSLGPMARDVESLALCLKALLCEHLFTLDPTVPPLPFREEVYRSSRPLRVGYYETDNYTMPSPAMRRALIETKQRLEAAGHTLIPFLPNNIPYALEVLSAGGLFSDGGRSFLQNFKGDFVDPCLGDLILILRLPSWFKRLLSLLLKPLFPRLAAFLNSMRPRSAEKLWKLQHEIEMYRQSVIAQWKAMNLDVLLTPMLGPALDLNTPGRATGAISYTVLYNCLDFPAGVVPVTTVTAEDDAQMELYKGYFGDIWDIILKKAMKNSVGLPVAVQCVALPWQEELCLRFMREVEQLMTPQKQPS

Cannabinoid receptor 1 = Cannabinoid receptor 1 (Homo sapiens, UniProt P21554); test: Displacement of [3H]SR141716A from human CB1 receptor
Chain of Cannabinoid receptor 1 (P21554 whole entry): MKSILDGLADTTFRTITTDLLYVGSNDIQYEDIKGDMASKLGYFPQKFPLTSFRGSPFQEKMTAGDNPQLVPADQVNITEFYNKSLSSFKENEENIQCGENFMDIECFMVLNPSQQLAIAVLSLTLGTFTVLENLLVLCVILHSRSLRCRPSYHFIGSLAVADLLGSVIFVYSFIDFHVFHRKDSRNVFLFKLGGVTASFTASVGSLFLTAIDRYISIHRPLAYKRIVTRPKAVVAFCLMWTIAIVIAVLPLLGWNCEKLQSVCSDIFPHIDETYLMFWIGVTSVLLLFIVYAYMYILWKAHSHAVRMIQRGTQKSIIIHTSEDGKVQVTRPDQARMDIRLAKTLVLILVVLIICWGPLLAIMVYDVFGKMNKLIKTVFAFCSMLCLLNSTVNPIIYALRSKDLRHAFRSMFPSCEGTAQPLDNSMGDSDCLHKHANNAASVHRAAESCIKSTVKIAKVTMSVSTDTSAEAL

[4] = Drug metabolism in human liver microsomes after 10 mins; assay type: ADME, Microsome; conditions: read-out: Drug metabolism
[5] = biological target: Voltage-gated inwardly rectifying potassium channel KCNH2 (Homo sapiens, UniProt Q12809); test: Inhibition of human ERG
Chain of Voltage-gated inwardly rectifying potassium channel KCNH2 (Q12809 whole entry): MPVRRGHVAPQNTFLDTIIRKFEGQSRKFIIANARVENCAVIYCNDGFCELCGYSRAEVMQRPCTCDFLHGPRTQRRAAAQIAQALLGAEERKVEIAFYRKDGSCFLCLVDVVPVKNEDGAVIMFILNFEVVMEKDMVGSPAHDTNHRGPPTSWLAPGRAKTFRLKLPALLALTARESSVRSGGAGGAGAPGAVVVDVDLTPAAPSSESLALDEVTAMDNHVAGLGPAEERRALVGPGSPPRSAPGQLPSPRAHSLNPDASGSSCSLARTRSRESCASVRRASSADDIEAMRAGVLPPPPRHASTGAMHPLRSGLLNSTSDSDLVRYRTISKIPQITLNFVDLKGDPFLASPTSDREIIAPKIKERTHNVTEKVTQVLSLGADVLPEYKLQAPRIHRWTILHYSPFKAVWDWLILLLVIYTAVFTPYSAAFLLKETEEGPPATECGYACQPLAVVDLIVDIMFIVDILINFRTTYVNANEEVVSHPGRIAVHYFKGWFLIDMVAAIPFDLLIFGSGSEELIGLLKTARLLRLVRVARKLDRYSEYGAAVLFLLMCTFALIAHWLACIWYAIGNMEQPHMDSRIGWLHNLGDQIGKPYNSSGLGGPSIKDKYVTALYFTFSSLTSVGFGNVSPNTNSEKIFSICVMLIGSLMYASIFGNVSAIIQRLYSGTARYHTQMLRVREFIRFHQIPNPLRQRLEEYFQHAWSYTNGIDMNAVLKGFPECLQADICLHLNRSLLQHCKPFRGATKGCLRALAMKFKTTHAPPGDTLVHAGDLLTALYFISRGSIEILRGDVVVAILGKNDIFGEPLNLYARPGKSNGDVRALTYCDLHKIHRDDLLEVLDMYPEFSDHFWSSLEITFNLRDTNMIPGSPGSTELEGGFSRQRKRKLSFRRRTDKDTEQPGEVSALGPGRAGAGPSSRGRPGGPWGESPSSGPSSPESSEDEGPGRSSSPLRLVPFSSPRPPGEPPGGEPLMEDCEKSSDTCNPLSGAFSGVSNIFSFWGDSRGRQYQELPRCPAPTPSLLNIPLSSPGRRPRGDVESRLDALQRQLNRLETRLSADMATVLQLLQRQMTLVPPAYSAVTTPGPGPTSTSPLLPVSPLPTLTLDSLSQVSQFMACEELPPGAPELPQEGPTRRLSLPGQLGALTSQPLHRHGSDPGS

Plasma [6] = test: Ratio of plasma concentration in rat hepatic portal vein to plasma concentration in rat vena cava at 4 mg/kg, po; assay type: ADME, organism-based; set-up: dose 4 mg/kg, route oral; conditions: in vivo
Cytochrome P450 3A4 = Cytochrome P450 3A4 (Homo sapiens, UniProt P08684); test: Inhibition of CYP3A4; assay type: ADME
Chain of Cytochrome P450 3A4 (P08684 whole entry): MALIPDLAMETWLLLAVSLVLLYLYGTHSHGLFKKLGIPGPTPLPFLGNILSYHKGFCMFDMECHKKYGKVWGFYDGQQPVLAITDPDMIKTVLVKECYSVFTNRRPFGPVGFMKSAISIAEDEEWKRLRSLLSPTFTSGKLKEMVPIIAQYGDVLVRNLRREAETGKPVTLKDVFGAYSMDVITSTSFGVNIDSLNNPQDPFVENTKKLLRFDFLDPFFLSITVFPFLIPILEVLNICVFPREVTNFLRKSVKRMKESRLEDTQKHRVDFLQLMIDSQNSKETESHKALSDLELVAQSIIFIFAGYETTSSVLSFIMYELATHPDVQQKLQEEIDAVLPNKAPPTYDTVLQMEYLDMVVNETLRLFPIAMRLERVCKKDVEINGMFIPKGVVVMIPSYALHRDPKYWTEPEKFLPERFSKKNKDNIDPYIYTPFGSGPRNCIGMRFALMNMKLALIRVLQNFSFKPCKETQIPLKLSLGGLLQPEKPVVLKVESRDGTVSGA

Brain [7] = test: Drug uptake in rat brain at 3 mg/kg, iv; assay type: ADME, organism-based; set-up: dose 3 mg/kg, route intravenous; conditions: in vivo
Cytochrome P450 2C19 = Cytochrome P450 2C19 (Homo sapiens, UniProt P33261); test: Inhibition of CYP2C19; assay type: ADME
Chain of Cytochrome P450 2C19 (P33261 whole entry): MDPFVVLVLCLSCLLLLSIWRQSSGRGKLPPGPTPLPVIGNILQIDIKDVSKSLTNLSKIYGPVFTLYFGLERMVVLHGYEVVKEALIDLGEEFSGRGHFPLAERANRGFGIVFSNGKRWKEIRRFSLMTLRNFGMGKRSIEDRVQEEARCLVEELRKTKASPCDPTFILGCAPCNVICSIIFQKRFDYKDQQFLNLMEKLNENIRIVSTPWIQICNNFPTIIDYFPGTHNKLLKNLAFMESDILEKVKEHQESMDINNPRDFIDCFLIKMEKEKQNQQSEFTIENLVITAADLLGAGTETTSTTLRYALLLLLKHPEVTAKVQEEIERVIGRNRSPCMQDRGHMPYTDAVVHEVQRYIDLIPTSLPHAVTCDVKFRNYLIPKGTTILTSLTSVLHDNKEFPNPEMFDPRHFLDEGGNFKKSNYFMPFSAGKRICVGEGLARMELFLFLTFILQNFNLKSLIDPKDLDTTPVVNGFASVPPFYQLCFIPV

Monoglyceride lipase = biological target: T3, Monoglyceride lipase (Homo sapiens, UniProt Q99685); test: Inhibition of human recombinant N-His6-tagged MAGL expressed in Escherichia coli using 7-Hydroxycoumarinyl arachidonate as substrate by fluorimetry
T3 sequence (Q99685 whole entry): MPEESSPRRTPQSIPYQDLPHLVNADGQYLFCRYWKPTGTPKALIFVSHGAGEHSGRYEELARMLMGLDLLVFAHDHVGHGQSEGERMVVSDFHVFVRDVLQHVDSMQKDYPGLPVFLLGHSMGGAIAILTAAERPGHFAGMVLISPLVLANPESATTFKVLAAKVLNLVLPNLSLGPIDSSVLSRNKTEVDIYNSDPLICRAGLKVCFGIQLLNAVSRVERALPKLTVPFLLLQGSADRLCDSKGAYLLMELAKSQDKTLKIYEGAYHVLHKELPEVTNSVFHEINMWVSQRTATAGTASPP

Rattus norvegicus [8] = test: Inhibition of FAAH in rat assessed as AEA level in brain at 3 mg/kg, iv administered 30 mins prior to anandamide loading measured after 30 mins relative to vehicle treated control; assay type: functional
[9] = Oral bioavailability in rat at 4 mg/kg; assay type: ADME, organism-based; conditions: in vivo
[10] = Volume of distribution in rat at 2 mg/kg, iv; assay type: ADME, organism-based; set-up: dose 2 mg/kg, route intravenous; conditions: in vivo
[11] = Aqueous solubility of the compound at pH 1; assay type: physicochemical; conditions: aqueous medium
[12] = Cmax in rat at 4 mg/kg, po; assay type: ADME, organism-based; set-up: dose 4 mg/kg, route oral; conditions: in vivo
Brain [13] = test: Drug uptake in rat brain at 0.3 mg/kg, iv; assay type: ADME, organism-based; set-up: dose 0.3 mg/kg, route intravenous; conditions: in vivo
Plasma [14] = test: Plasma concentration in rat at 1 mg/kg, iv; assay type: ADME, organism-based; set-up: dose 1 mg/kg, route intravenous; conditions: in vivo
Rattus norvegicus [15] = test: Inhibition of FAAH in rat assessed as AEA level in brain at 0.3 mg/kg, iv administered 30 mins prior to anandamide loading measured after 30 mins relative to vehicle treated control; assay type: functional
[16] = Aqueous solubility of the compound at pH 6.8; assay type: physicochemical; conditions: aqueous medium
[17] = Plasma clearance in rat at 2 mg/kg, iv; assay type: ADME, organism-based; set-up: dose 2 mg/kg, route intravenous
Cytochrome P450 2D6 = Cytochrome P450 2D6 (Homo sapiens, UniProt P10635); test: Inhibition of CYP2D6; assay type: ADME
Chain of Cytochrome P450 2D6 (P10635 whole entry): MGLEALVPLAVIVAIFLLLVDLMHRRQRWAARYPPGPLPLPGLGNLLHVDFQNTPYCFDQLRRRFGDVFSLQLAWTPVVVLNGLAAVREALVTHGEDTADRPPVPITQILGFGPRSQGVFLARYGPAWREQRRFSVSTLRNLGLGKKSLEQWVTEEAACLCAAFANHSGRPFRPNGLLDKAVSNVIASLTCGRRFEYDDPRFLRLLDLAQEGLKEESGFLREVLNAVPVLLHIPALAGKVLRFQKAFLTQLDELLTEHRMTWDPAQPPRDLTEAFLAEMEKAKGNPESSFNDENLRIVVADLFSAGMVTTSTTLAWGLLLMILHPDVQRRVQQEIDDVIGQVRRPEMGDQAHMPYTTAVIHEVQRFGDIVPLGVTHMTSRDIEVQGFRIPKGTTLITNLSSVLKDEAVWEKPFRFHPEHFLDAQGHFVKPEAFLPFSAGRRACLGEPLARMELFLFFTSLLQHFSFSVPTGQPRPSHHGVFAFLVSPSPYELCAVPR

[18] = Apparent permeability from apical to basolateral side of human Caco2 cells; assay type: ADME, cell-based; conditions: Caco-2
[19] = Apparent permeability from basolateral to apical side of human Caco2 cells; assay type: ADME, cell-based; conditions: Caco-2
Plasma [20] = test: Plasma concentration in rat at 0.3 mg/kg, iv; assay type: ADME, organism-based; set-up: dose 0.3 mg/kg, route intravenous; conditions: in vivo
Rattus norvegicus [21] = test: Inhibition of FAAH in iv dosed rat assessed as AEA level in brain administered 30 mins prior to anandamide loading measured after 30 mins; assay type: functional, organism-based
Cytochrome P450 1A2 = biological target: T4, Cytochrome P450 1A2 (Homo sapiens, UniProt P05177); test: Inhibition of CYP1A2; assay type: ADME
T4 sequence (P05177 whole entry): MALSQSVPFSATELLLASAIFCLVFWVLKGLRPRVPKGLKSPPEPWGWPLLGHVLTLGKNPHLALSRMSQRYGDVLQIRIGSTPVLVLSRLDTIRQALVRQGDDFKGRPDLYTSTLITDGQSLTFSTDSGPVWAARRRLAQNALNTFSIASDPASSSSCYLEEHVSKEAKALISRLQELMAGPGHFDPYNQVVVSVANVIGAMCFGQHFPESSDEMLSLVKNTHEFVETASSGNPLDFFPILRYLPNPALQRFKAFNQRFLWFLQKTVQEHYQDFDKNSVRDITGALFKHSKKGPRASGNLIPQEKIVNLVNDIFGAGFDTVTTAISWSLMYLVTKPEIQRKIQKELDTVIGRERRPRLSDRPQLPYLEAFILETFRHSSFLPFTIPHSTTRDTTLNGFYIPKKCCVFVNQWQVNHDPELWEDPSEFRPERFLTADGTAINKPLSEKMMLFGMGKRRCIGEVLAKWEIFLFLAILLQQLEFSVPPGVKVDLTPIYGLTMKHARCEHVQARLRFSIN

Plasma [22] = test: Plasma concentration in rat at 3 mg/kg, iv; assay type: ADME, organism-based; set-up: dose 3 mg/kg, route intravenous; conditions: in vivo
Brain [23] = test: Drug uptake in rat brain at 1 mg/kg, iv; assay type: ADME, organism-based; set-up: dose 1 mg/kg, route intravenous; conditions: in vivo
Cytochrome P450 2C9 = Cytochrome P450 2C9 (Homo sapiens, UniProt P11712); test: Inhibition of CYP2C9; assay type: ADME
Chain of Cytochrome P450 2C9 (P11712 whole entry): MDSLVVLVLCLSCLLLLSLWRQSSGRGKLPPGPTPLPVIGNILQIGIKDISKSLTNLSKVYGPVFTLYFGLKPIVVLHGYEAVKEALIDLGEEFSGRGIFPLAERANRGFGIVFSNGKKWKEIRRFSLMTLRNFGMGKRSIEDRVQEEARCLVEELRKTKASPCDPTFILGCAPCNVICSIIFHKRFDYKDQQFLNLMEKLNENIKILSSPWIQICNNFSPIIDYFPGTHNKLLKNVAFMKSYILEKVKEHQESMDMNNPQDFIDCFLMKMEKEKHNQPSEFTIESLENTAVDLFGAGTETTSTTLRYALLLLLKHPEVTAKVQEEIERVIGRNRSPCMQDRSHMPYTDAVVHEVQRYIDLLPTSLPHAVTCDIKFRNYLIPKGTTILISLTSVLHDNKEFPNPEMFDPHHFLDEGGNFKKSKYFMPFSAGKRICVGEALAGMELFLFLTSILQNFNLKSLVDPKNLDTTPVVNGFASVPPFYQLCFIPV

Rattus norvegicus [24] = test: Inhibition of FAAH in rat assessed as AEA level in brain at 1 mg/kg, iv administered 30 mins prior to anandamide loading measured after 30 mins relative to vehicle treated control; assay type: functional

Chain of Cannabinoid receptor 2 (P34972 whole entry): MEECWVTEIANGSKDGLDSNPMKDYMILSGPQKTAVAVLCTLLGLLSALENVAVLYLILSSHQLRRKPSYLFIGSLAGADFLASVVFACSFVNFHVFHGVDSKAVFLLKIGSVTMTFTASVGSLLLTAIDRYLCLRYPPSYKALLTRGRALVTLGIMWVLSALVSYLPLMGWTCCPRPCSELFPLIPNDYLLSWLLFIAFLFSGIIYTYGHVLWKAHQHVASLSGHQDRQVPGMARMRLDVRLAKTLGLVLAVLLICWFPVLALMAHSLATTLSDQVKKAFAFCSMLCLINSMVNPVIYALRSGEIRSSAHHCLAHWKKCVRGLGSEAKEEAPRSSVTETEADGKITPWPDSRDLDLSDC

SMILES: CN(Cc1ccccc1)C(=O)N1CC(O[C@H](c2ccc(Cl)cc2)c2cccnc2Cl)C1
- pKi (Cannabinoid receptor 2): 6.31
- metabolised at 10 min [1]: 95%
- pIC50 [2]: 4.39
- pIC50 [3]: 5.34
- pKi (Cannabinoid receptor 1): 8.82
- metabolised at 10 min [4]: 92%

SMILES: O=C(N1CCCCC1)N1CC(O[C@H](c2ccc(Cl)cc2)c2cccnc2Cl)C1
- metabolised at 10 min [1]: > 99%
- pIC50 [2]: < 3.30
- pIC50 [3]: 4.38
- pKi (Cannabinoid receptor 1): 8.15
- metabolised at 10 min [4]: 78%

SMILES: O=C(N1CCCCC1)N1CC(OC(c2ccccc2)c2cccnc2)C1 (racemic)
- metabolised at 10 min [1]: > 99%
- pIC50 [2]: 4.08
- pIC50 [3]: 5.44
- metabolised at 10 min [4]: 32%

SMILES: O=C(N1CCC(O)CC1)N1CC(OC(c2ccc(Cl)cc2)c2cccnc2Cl)C1 (racemic)
- metabolised at 10 min [1]: 14%
- pIC50 [2]: 4.43
- pIC50 [3]: 5.54
- metabolised at 10 min [4]: 23%

SMILES: CN(C(=O)N1CC(OC(c2ccc(Cl)cc2)c2cccnc2Cl)C1)c1ccccc1 (racemic)
- metabolised at 10 min [1]: 81%
- pIC50 [2]: 3.71
- pIC50 [3]: 3.85
- metabolised at 10 min [4]: 79%

The next compounds have a higher pIC50 [2] than those just listed; values first:

- Ratio (Plasma [6]): 17
- pIC50 (Cytochrome P450 3A4): < 5.00
- Drug uptake (Brain [7]): 137 ng/g
- pIC50 (Cytochrome P450 2C19): 5.69
- metabolised at 10 min [1]: 98%
- pIC50 (Monoglyceride lipase): 4.65
- pIC50 [2]: 6.01
- bioavailability [9]: 2.4%
- Vd [10]: 3.3 L/kg
- solubility [11]: 158 µM (≈ 66.4 µg/mL)
- Cmax [12]: 5 ng/mL
- Drug uptake (Brain [13]): 18 ng/g
- Cp (Plasma [14]): 72 ng/g
- solubility [16]: 175 µM (≈ 73.6 µg/mL)
- clearance [17]: 47 mL/min/kg
- pIC50 (Cytochrome P450 2D6): < 5.00
- Papp A→B [18]: 31.7 ×10⁻⁶ cm/s
- Papp B→A [19]: 27.5 ×10⁻⁶ cm/s
- Cp (Plasma [20]): 8.5 ng/g
- pIC50 [3]: 6.95
- metabolised at 10 min [4]: 92%
- pIC50 (Cytochrome P450 1A2): < 5.00
- Cp (Plasma [22]): 109 ng/g
- Drug uptake (Brain [23]): 79 ng/g
- pIC50 (Cytochrome P450 2C9): < 5.00
SMILES: O=C(N1CCCCC1)N1CC(O[C@@H](c2ccc(Cl)cc2)c2cccnc2Cl)C1
- pIC50 [5]: 4.51
- fold change (FC) (Rattus norvegicus [8]): 5.1
- fold change (FC) (Rattus norvegicus [15]): 1.7
- inhibition (Rattus norvegicus [21]): Dose-dependent effect
- fold change (FC) (Rattus norvegicus [24]): 3.3

- metabolised at 10 min [1]: 45%
- pIC50 [2]: 4.61
- pIC50 [3]: 5.40
- metabolised at 10 min [4]: 17%
SMILES: O=C(N1Cc2ccccc2C1)N1CC(OC(c2ccc(Cl)cc2)c2cccnc2Cl)C1 (racemic)

- pKi (Cannabinoid receptor 2): 5.40
- metabolised at 10 min [1]: 98%
- pIC50 [2]: 6.05
- pIC50 [3]: 7.03
- pKi (Cannabinoid receptor 1): 6.60
- metabolised at 10 min [4]: 94%
SMILES: CN(Cc1ccccc1)C(=O)N1CC(O[C@@H](c2ccc(Cl)cc2)c2cccnc2Cl)C1
